This note sets out measurements from publication PMC5618406, “New Marine Antifouling Compounds from the Red Alga Laurencia sp” (Marine Drugs, 2017).

Data set [1] is described as follows: Antifouling assay against barnacle larvae. Format: in vivo. The conditions noted are these: Amphibalanus amphitrite (barnacle), in vivo, barnacle larvae. The protocol:
(§1) An antifouling assay against larvae of the barnacle Amphibalanus amphitrite was conducted according to the previous literature. The antifouling assay against diatoms Nitzschia sp. and Cylindrotheca closterium was conducted as follows. The diatoms were maintained in test tubes under 16 h light and 8 h dark cycle conditions at 25 °C in modified Jorgensen’s medium. Pure compounds were applied to a sample zone (16 mm in diameter) of cellulose TLC aluminum sheet (58 × 58 mm), and then each treated sheet was placed in Petri dish (15 × 90 mm in diameter). After that, 25-mL aliquots of modified Jorgensen’s medium were introduced into Petri dishes with treated sheets, and inoculated with 1 mL of cultivated diatom suspension in equivalent cell densities. Petri dishes were sealed with Parafilm to ensure a closed system, and were incubated under the same conditions. Cell growth was estimated daily, and the adhesive condition was evaluated and compared to those of the control after seven days of incubation.

Data set [2] deals with larvae of the barnacle Amphibalanus amphitrite. Nature of the data set: Antifouling assay against barnacle larvae. Format: in vivo. The conditions noted are these: for toxicity to larvae: at 10 µg/mL. Here is the method: as §1
The next data set has as its system Cylindrotheca closterium. The data set is described as follows: Antifouling (anti-diatom) assay on treated cellulose TLC sheet. Format: cell-based. The conditions noted are these: at 5–10 µg/cm^2, seven days of incubation. The protocol: as §1
Another data set relates to Nitzschia sp. Described as above. Format: cell-based. The conditions noted are these: at 5–10 µg/cm^2, seven days of incubation. The protocol: as §1
Setting [3] is: values in text, read-out: toxicity LC50.
Where [4] appears, read: Amphibalanus amphitrite, barnacle larvae, Table 4, read-out: EC50.
[5] abbreviates: Amphibalanus amphitrite, barnacle larvae, values in text, read-out: antifouling activity EC50.
[6] abbreviates: barnacle larvae, values in text.
The mark [7] stands for this setting: Table 4, dash entries, read-out: LC50.
[8] abbreviates: Amphibalanus amphitrite, barnacle larvae, Table 4, dash entries, read-out: EC50.

Like-named read-outs stand apart in the source and are kept apart here. Where only a bound is given, the exact number is not on record here.

`CC[C@@H]1[C@@H]2[C@H]3OC(C=C=CBr)C[C@H]3O[C@]2(O)[C@@H](Br)C[C@H]1Br` (relative stereo) [Compound 3, hachijojimallene A]: the LC50 (as a rule, the concentration that kills 50% of the test population) in data set [1] (Table 4, read-out: LC50) turned out to be 20 µM; in data set [1] (setting [3]) it was 9.8 µg/mL. Also, the EC50 (commonly the midpoint of the concentration-response curve) in data set [2] (setting [4]) is 0.31 µM; in data set [2] (setting [5]) it was 0.15 to 0.23 µg/mL. Further, the “antifouling activity EC50” value in data set [2] (setting [6]) stood at 0.15 µg/mL.
`CC[C@@H]1[C@@H]2[C@H]3OC(C=C=CBr)C[C@H]3O[C@@]23O[C@@H]1C[C@@H]3Br` (relative stereo) [Compound 4, hachijojimallene B]: the LC50 came to 17 µM in data set [1] (Table 4, read-out: LC50) and 6.8 µg/mL in data set [1] (setting [3]). For the same molecule, the EC50 in data set [2] (setting [4]) is 0.76 µM; in data set [2] (setting [5]), 0.31 µg/mL.
Regarding `CC(C)=CCCC(C)C1(O)CCC2(C)C(Br)CCC(C)(O)C2C1` (centres unmarked) [Compound 1, omaezol], the LC50 in data set [1] (Table 4, read-out: LC50) came to 9.6 µM; in data set [1] (setting [3]), 3.7 µg/mL. For the same molecule, the figures for the EC50 in data set [2] (setting [4]) and in data set [2] (setting [5]) were 0.59 µM and 0.15 to 0.23 µg/mL, respectively. Also, the “antifouling activity EC50” value in data set [2] (setting [6]) amounted to 0.23 µg/mL.
Regarding `CC(C)(Cl)C(Br)CCC(C)(O)C1CCC(C)(C(O)CCC2OC3(C(C)(O)CCC(Br)C(C)(C)Cl)CCC2(C)O3)O1` (centres unmarked) [Compound 2, intricatriol], the LC50 in data set [1] (setting [7]) was greater than 10 µg/mL. For the same molecule, the EC50 in data set [2] (setting [8]) and in data set [2] (setting [5]) was greater than 10 µg/mL each time.
Take `Cc1ccc2c(c1)O[C@@]1(C=O)[C@@H](C)CC[C@@]21C` [Compound 5, debromoaplysinal]: in data set [1] (setting [7]), the LC50 is greater than 10 µg/mL. The results for the EC50 in data set [2] (setting [4]) and in data set [2] (setting [5]) were 4.3 µM and 1 µg/mL, respectively. Moreover, the toxicity to larvae entry in data set [2] is on record as “did not kill any larvae”.
As for `CC1=C(/C=C/C(C)=C/CC/C(C)=C/CO)C(C)(C)CC(O)C1` (centres unmarked) [Compound 6, 11,12-dihydro-3-hydroxyretinol], the anti-diatom activity result in the data set with Cylindrotheca closterium and with Nitzschia sp. was “showed inhibition” each time.
As for `Cc1cc(O)c([C@]2(C)CC[C@@H]3C[C@@]32C)cc1Br` [Compound 8, laurinterol], the LC50 is 20 µM in data set [1] (Table 4, read-out: LC50) and 5.8 µg/mL in data set [1] (setting [3]). In addition, the half-maximal effective concentration (EC50) in data set [2] (setting [4]) worked out at 2.2 µM; in data set [2] (setting [5]) it was 0.65 µg/mL.
With `C=C1[C@@H](C)CC[C@@]1(C)c1cc(Br)c(C)cc1O` [Compound 9, isolaurinterol], the 50% lethal concentration (LC50) in data set [1] (setting [7]) and in data set [1] (setting [3]) was greater than 10 µg/mL each time. Moreover, the EC50 was determined as 1.2 µM in data set [2] (setting [4]) and 0.34 µg/mL in data set [2] (setting [5]).
In the case of `Cc1ccc([C@]2(C)CC[C@@H]3C[C@@]32C)c(O)c1` [Compound 10, debromolaurinterol], the LC50 in data set [1] (setting [7]) and in data set [1] (setting [3]) was greater than 10 µg/mL each time. In addition, the EC50 in data set [2] (setting [4]) amounted to 2.3 µM; in data set [2] (setting [5]) it was 0.5 µg/mL.
Regarding `Cc1ccc([C@]2(C)CC[C@@H](Br)C2(C)C)cc1` [Compound 11, α-bromocuparene], in data set [1] (setting [7]), the LC50 was greater than 10 µg/mL. Besides, the 50% effective concentration (EC50) in data set [2] (setting [8]) is greater than 10 µg/mL. The antifouling activity entry in data set [2] (barnacle larvae, result in words) is “inactive”.
For `CC1(C)C(Br)=C[C@H]2O[C@@]2(C)[C@]12C[C@H](Br)[C@@](C)(Cl)C[C@@H]2O` [Compound 12, prepacifenol], the LC50 in data set [1] (setting [7]) and in data set [1] (setting [3]) was greater than 10 µg/mL throughout. Moreover, the EC50 in data set [2] (setting [4]) turned out to be 1.5 µM; in data set [2] (setting [5]), 0.63 µg/mL. Further, the anti-diatom activity entry in the data set on Cylindrotheca closterium and in the data set on Nitzschia sp. was “showed inhibition” in each case.
For `CC1(C)[C@]23C[C@H](Br)[C@@](C)(Cl)C[C@@H]2O[C@@]1(Br)C=C[C@@]3(C)O` [Compound 13, pacifenol], the LC50 in data set [1] (setting [7]) and in data set [1] (setting [3]) was greater than 10 µg/mL throughout. For the same molecule, the EC50 in data set [2] (setting [4]) was 5.5 µM; in data set [2] (setting [5]) it was 2.36 µg/mL.
Consider `CC1=C[C@H](O)[C@@H](Br)C(C)(C)[C@]12CC[C@](C)(Cl)[C@@H](Br)C2` [Compound 14, 2,10-dibromo-3-chloro-9-hydroxy-α-chamigrene], for which the LC50 in data set [1] (setting [7]) and in data set [1] (setting [3]) was greater than 10 µg/mL each time. Moreover, the EC50 is 6.1 µM in data set [2] (setting [4]) and 2.51 µg/mL in data set [2] (setting [5]). Moreover, the anti-diatom activity entry with Cylindrotheca closterium and with Nitzschia sp. was “showed inhibition” in each case.
With `O=S(=O)([O-])[O-].[Cu+2]` [CuSO4, reference compound], the LC50 in data set [2] (barnacle larvae, Table 4) was found to be 1.4 µM. For the same molecule, the EC50 in data set [2] (barnacle larvae, Table 4, read-out: EC50) was found to be 0.72 µM. Also, the “antifouling activity EC50” value in data set [2] (setting [6]) was found to be 0.18 µg/mL.
For the molecule `Cn1c(Br)c(Br)c2ccc(Br)cc21` [N-methyl-2,3,6-tribromoindole], the concentration giving a half-maximal response (EC50) in data set [2] (setting [5]) stood at 4.3 µg/mL. Also, in data set [2], the toxicity to larvae entry is recorded as “not toxic”.
